Values of other authors as cited in patent US20080058642A1, “METHOD FOR DETECTING CORONARY ENDOTHELIAL DYSFUNCTION AND EARLY ATHEROSCLEROSIS” (BOARD OF REGENTS OF THE UNIVERSITY OF TEXAS SYSTEM, priority 2006, published 2008).

Molecular target: T1, ETA-receptor (Homo sapiens, UniProt P25101)
T1 construct: host or cells: in vivo, heart failure trial
T1 sequence (P25101 21-427): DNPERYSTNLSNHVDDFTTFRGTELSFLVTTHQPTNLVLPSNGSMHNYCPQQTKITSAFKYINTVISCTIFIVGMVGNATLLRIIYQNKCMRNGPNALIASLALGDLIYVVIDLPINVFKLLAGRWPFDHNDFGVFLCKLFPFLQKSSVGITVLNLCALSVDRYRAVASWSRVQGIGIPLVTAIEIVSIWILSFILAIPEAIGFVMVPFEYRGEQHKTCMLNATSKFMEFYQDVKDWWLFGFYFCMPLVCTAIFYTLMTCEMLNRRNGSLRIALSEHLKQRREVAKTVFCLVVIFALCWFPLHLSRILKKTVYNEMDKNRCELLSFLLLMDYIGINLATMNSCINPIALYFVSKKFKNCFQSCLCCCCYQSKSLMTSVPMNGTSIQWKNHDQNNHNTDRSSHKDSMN
Conditions: recent randomized trial; cited from earlier work

Compound: COc1cc(OC)nc(O[C@H](C(=O)O)C(OC)(c2ccccc2)c2ccccc2)n1 [Darusentan™]
- benefit in heart failure: no benefit
